Reference: ChEMBL document CHEMBL1201862, “PubChem BioAssay data set” (2004)
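Protocol summary: plate cells (96-well), add compound at 5 concentrations, incubate 48 h, interpolate endpoints linearly. GI50: concentration for 50% inhibition of growth.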 Active and inactive are the calls of the source. Rule as the data show it: active = GI50 up to about 1.1 µM and inactive = higher.

Legend:
Assay in all cases: NCI tumour cell line growth inhibition, 48 h
MOLT-4 = system: MOLT-4
K562 = system: K562
NCI-H460 = system: NCI-H460
SNB-75 = system: SNB-75
HL-60 = system: HL-60
IGROV-1 = system: IGROV-1
SF-539 = system: SF-539
UACC-62 = system: UACC-62
COLO 205 = system: COLO 205
LOX IMVI = system: LOX IMVI
HCT-15 = system: HCT-15
OVCAR-8 = system: OVCAR-8
SK-MEL-2 = system: SK-MEL-2
OVCAR-5 = system: OVCAR-5
KM12 = system: KM12
Malme-3M = system: Malme-3M
HOP-62 = system: HOP-62
HCT-116 = system: HCT-116
SN12C = system: SN12C
SK-MEL-5 = system: SK-MEL-5

Measured: GI50

COc1ccc2c(c1)OCCc1cn[nH]c1-2
35.2 µM: HCT-15
inactive: MOLT-4 20.8 µM | K562 41.3 µM | NCI-H460 31.6 µM | SNB-75 28.4 µM | HL-60 13.3 µM | IGROV-1 23.4 µM | SF-539 32.7 µM | UACC-62 22.8 µM | COLO 205 29.3 µM | LOX IMVI 31.3 µM | OVCAR-8 55.6 µM | SK-MEL-2 29.4 µM | OVCAR-5 35.7 µM | KM12 38.9 µM | Malme-3M 38.9 µM | HOP-62 56.6 µM | HCT-116 42.4 µM | SN12C 38.6 µM | SK-MEL-5 29.2 µM

CCC(=O)NC(Nc1ccc(O)cc1)(C(F)(F)F)C(F)(F)F
inactive: MOLT-4 42.5 µM | K562 33.1 µM | NCI-H460 > 100 µM | SNB-75 > 100 µM | HL-60 18.5 µM | SF-539 96.4 µM | UACC-62 40.1 µM | LOX IMVI 33.6 µM | SK-MEL-2 41.6 µM | OVCAR-5 > 100 µM | KM12 62.7 µM | Malme-3M 42.2 µM | HOP-62 > 100 µM | HCT-116 46.3 µM | SN12C > 100 µM
29.9 µM: HCT-15

COC(=O)C1=C(C(=O)OC)SC2(S1)C1=C(CCCC1)SC(C(=O)OC)=C2C(=O)OC
inactive: MOLT-4 1.93 µM | K562 1.62 µM | NCI-H460 3.84 µM | HL-60 2.91 µM | IGROV-1 8.32 µM | SF-539 1.51 µM | UACC-62 12.7 µM | COLO 205 9.25 µM | LOX IMVI 2.83 µM | OVCAR-8 6.32 µM | SK-MEL-2 15.5 µM | OVCAR-5 12.6 µM | KM12 5.74 µM | Malme-3M 11.4 µM | HOP-62 5.62 µM | HCT-116 1.52 µM | SN12C 2.76 µM | SK-MEL-5 10.1 µM
4.39 µM: HCT-15

C/C(=C/C(=O)Nc1ccccc1)Nc1onc(C)c1C
> 100 µM: HCT-15
inactive: MOLT-4 > 100 µM | K562 > 100 µM | NCI-H460 > 100 µM | SNB-75 38.4 µM | HL-60 > 100 µM | IGROV-1 > 100 µM | SF-539 > 100 µM | UACC-62 > 100 µM | COLO 205 > 100 µM | LOX IMVI > 100 µM | OVCAR-8 > 100 µM | SK-MEL-2 > 100 µM | OVCAR-5 > 100 µM | KM12 > 100 µM | Malme-3M > 100 µM | HOP-62 > 100 µM | HCT-116 > 100 µM | SN12C > 100 µM | SK-MEL-5 > 100 µM

O=C(O)c1cc([N+](=O)[O-])cc2c(=O)c3cnccc3[nH]c12
> 100 µM: HCT-15
inactive: MOLT-4 54.8 µM | K562 > 100 µM | NCI-H460 > 100 µM | SNB-75 > 100 µM | HL-60 > 100 µM | IGROV-1 > 100 µM | UACC-62 65.2 µM | COLO 205 > 100 µM | OVCAR-8 > 100 µM | SK-MEL-2 > 100 µM | OVCAR-5 > 100 µM | KM12 > 100 µM | Malme-3M > 100 µM | HOP-62 > 100 µM | HCT-116 > 100 µM | SN12C > 100 µM | SK-MEL-5 > 100 µM

CC(=O)CCC#Cc1ccccc1C(=O)C(C)=[N+]=[N-]
inactive: MOLT-4 19.8 µM | K562 20.8 µM | NCI-H460 37.4 µM | SNB-75 15.6 µM | HL-60 13.2 µM | IGROV-1 30 µM | SF-539 97.3 µM | UACC-62 16.1 µM | COLO 205 14.9 µM | LOX IMVI 32.2 µM | OVCAR-8 42.8 µM | SK-MEL-2 72.3 µM | OVCAR-5 > 100 µM | KM12 45 µM | Malme-3M 19.6 µM | HOP-62 71.3 µM | HCT-116 13 µM | SN12C 49.1 µM | SK-MEL-5 15.4 µM
48.8 µM: HCT-15

Cc1ccc(Sc2ccccc2[N+](=O)[O-])cc1
inactive: MOLT-4 21.9 µM | K562 18.1 µM | NCI-H460 31.1 µM | SNB-75 5.71 µM | HL-60 21 µM | IGROV-1 83 µM | SF-539 33 µM | UACC-62 37.3 µM | COLO 205 23.4 µM | LOX IMVI 27.4 µM | OVCAR-8 32.2 µM | SK-MEL-2 27.9 µM | OVCAR-5 72.3 µM | KM12 29.4 µM | Malme-3M 32.3 µM | HOP-62 32.1 µM | HCT-116 27.5 µM | SN12C 29.8 µM | SK-MEL-5 15.3 µM
20 µM: HCT-15

CC(C)c1cccc(C(C)C)c1NC(=S)Nc1ccccc1
inactive: MOLT-4 > 100 µM | K562 70.6 µM | NCI-H460 > 100 µM | SNB-75 36.5 µM | HL-60 6.81 µM | IGROV-1 > 100 µM | SF-539 > 100 µM | UACC-62 > 100 µM | COLO 205 > 100 µM | LOX IMVI 79.4 µM | OVCAR-8 > 100 µM | SK-MEL-2 > 100 µM | OVCAR-5 > 100 µM | KM12 > 100 µM | Malme-3M > 100 µM | HOP-62 > 100 µM | HCT-116 > 100 µM | SN12C > 100 µM | SK-MEL-5 48 µM
> 100 µM: HCT-15

O=C1Sc2ccccc2NC1=C(C(=O)c1ccccc1)C(=O)c1ccccc1
inactive: K562 2.88 µM | NCI-H460 9.95 µM | SNB-75 31.6 µM | HL-60 1.87 µM | IGROV-1 38.4 µM | SF-539 26.5 µM | UACC-62 27 µM | COLO 205 37.4 µM | LOX IMVI 13.5 µM | OVCAR-8 22.9 µM | SK-MEL-2 19.4 µM | OVCAR-5 47.1 µM | KM12 31.6 µM | Malme-3M 41.2 µM | HOP-62 8.75 µM | HCT-116 18.7 µM | SN12C 18.2 µM | SK-MEL-5 16.8 µM
19.5 µM: HCT-15

O=S(=O)(CF)OCCCCOS(=O)(=O)CF
> 100 µM: HCT-15
inactive: MOLT-4 23.8 µM | K562 > 100 µM | NCI-H460 23.8 µM | SNB-75 27.7 µM | HL-60 13.2 µM | IGROV-1 > 100 µM | SF-539 > 100 µM | UACC-62 > 100 µM | COLO 205 > 100 µM | LOX IMVI 97.1 µM | OVCAR-8 > 100 µM | SK-MEL-2 > 100 µM | Malme-3M > 100 µM | HCT-116 > 100 µM | SN12C > 100 µM | SK-MEL-5 > 100 µM

COc1nn(Cc2ccccc2F)c2ccc([N+](=O)[O-])cc12
inactive: MOLT-4 > 20 µM | K562 2.91 µM | NCI-H460 > 100 µM | SNB-75 > 100 µM | HL-60 4.28 µM | IGROV-1 > 100 µM | SF-539 41.1 µM | COLO 205 > 100 µM | LOX IMVI > 100 µM | OVCAR-8 > 100 µM | SK-MEL-2 98.9 µM | OVCAR-5 > 100 µM | KM12 > 100 µM | Malme-3M > 85.3 µM | HOP-62 18.9 µM | HCT-116 > 100 µM | SN12C > 100 µM | SK-MEL-5 > 100 µM
> 100 µM: HCT-15

COc1cccc(N[C@@H]2c3cc4c(cc3C(c3cc(OC)c(O)c(OC)c3)[C@H]3C(=O)OCC32)OCO4)c1 (some centres not stated)
0.552 µM: HCT-15
active: MOLT-4 < 0.01 µM | K562 0.531 µM | NCI-H460 < 0.01 µM | SNB-75 0.52 µM | HL-60 0.0499 µM | SF-539 0.369 µM | UACC-62 0.24 µM | LOX IMVI 0.558 µM | HOP-62 0.191 µM | HCT-116 0.693 µM | SN12C 0.681 µM | SK-MEL-5 0.8 µM
inactive: IGROV-1 2.07 µM | COLO 205 2.11 µM | OVCAR-8 1.22 µM | SK-MEL-2 3.76 µM | OVCAR-5 4.46 µM | KM12 1.65 µM | Malme-3M 1.79 µM

CCc1nnc(-c2nsc3ccccc23)s1
72.4 µM: HCT-15
inactive: MOLT-4 38.5 µM | K562 54.7 µM | NCI-H460 > 100 µM | SNB-75 35.9 µM | HL-60 > 100 µM | IGROV-1 76.9 µM | SF-539 > 100 µM | UACC-62 > 100 µM | COLO 205 > 100 µM | LOX IMVI > 100 µM | OVCAR-8 > 100 µM | SK-MEL-2 > 100 µM | OVCAR-5 > 100 µM | KM12 > 100 µM | HOP-62 > 100 µM | HCT-116 > 100 µM | SN12C > 100 µM | SK-MEL-5 > 100 µM
